Consider one compound from US6387907B1, “Use of serotonin agonists to alleviate disordered breathing episodes in a mammal” (The Trustees of the University of Pennsylvania, priority 1997, dated 2002).

What all share (type): in vivo, English bulldog
For series [1], the system named is English bulldogs. In words: Direct observation of behavior after serotonin antagonists. Conditions: i.v. during quiet wakefulness; several dogs. From the text: The behavior of the dogs was observed directly throughout this study and for several hours following the last injection by one investigator seated adjacent the dog. The investigator documented both behavioral state and movement and helped the dog to maintain wakefulness throughout the study.

The test system of series [2] is English bulldogs. Kind of series: Respiratory timing from DIA moving average signals. As to conditions: 0.50 mg/kg; three dogs. From the text:
Respiratory timing variables were obtained from the DIA MA signals, using methods previously described to determine inspiratory time (T1), expiratory time (TE), total time of a respiratory burst (Ttot), and the duty cycle ratio (T1/Ttot) (Hendricks et al., 1987, J. Appl. Physiol. 63:1344-1350; Hendricks et al., 1991, Am Rev. Respir. Dis. 144:1112-1120).

Series [3] concerns English bulldogs. Kind of series: Waking oxyhemoglobin saturation (SaO2) after i.v. serotonin antagonist. Conditions: for mean SaO2: mean±SE. Here is the method: (§1) All studies were conducted using an unrestrained dog, either housed within a well-ventilated, electronically shielded, clear Plexiglass™ recording chamber or seated atop a table in the recording room. In either case, an investigator remained with the dog throughout the study to observe the dog's head and neck movements and to document the behavioral state of the dog. EMG signals were band-pass filtered at 50 to 2,000 Hertz. DIA EMG signals were passed through an analog EKG blanker (CWE EKG blanker; CWE, Ardmore, Pa.) and then through a third-order Paynter filter (CWE MA) having a 100-millisecond time constant to obtain a moving average of the DIA EMG. Signals of the SH and GH EMG were also passed through Paynter filters with the same time constants (100 ms) to obtain moving averages of these signals. Oxyhemoglobin saturation was measured continuously with a Biox IIA oximeter attached to the dog's pinna. Signals for the GH EMG, GH moving average (MA), SH EMG, SH MA, DIA EMG, DIA MA, and oxyhemoglobin saturations were recorded polygraphically (10 millimeters per second) using a chart recorder with high frequency response, i.e., as much as 10 kHz (Gould ES1000; Gould Instruments, Cleveland, Ohio). Signals were also recorded on analog tape using an eight-channel FM tape recorder (A. R. Vetter, Roseburg, Pa.).
(§2) After obtaining baseline recordings of all variables for at least 5 minutes during quiet wakefulness and after obtaining recordings during the 5 minutes following administration of a saline control injection, 0.25 to 0.50 milligrams per kilogram body weight of one of the serotonin antagonists was administered to each dog through a peripheral intravenous line. All variables were continuously recorded. Injections were repeated every 6 minutes either until a total dose of 1 milligram per kilogram body weight had been administered or until the oxygen saturations fell below 85%. These limits were deemed to ensure the dogs' safety, based on an initial study using one dog. This dog, EBD-G was hypoxic at baseline and developed profound reductions in UAW muscle activity with desaturations to 75% after a total dose of 1.0 milligram per kilogram body weight of methysergide. The interval between repeated injections was selected to be 6 minutes to allow for 5 minute sampling periods for each dose. The duration of action of serotonin antagonists is known to be greater than 60 minutes (Bredberg et al., supra; Devaud et al., supra).
The effects of ritanserin and methysergide on oxyhemoglobin saturations were analyzed in a similar fashion; i.e., repeated measures of ANOVA for baseline and drug dose conditions. Oxyhemoglobin saturation was measured every 10 scans.

Series [4] concerns English bulldogs. Kind of series: Diaphragm (DIA) EMG activity during wakefulness after i.v. serotonin antagonist. Conditions: for DIA peak amplitude, mean: mean±SE. Here is the method:
(§3) Five diaphragm electromyographic (DIA EMG) electrodes were implanted in the costal musculature of the right hemidiaphragm 7 to 9 centimeters lateral to the xyphoid process. Three other electrodes were embedded into the right sternohyoid (SH) muscle and, three more were embedded into the right geniohyoid (GH) muscle. Both SH and GH muscles are readily palpable in the English bulldog.
as §1, §2
The effects of serotonin antagonists on diaphragm activity were similarly analyzed. Briefly, the measures of diaphragm activity were the peak amplitudes for all respiratory bursts in each condition. […] Acquisition of these measures has also been previously described (Hendricks et al., 1991, Am. Rev. Respir. Dis. 144:1112-1120). Mean values across all respiratory bursts of a 5 minute sample period were determined for each dog, and these values were used to perform repeated measures of ANOVA comparing baseline values with post-administration values.

Series [5] deals with English bulldogs. Kind of series: Upper airway dilator muscle (GH, SH) EMG activity during wakefulness after i.v. serotonin antagonist. As to conditions: mean±SE.
Excerpt: Following the baseline sleep study to document sleep-disordered breathing, each dog underwent a surgical procedure for the implantation of recording electrodes. For this procedure, dogs were premedicated with 5 to 10 micrograms per kilogram body weight atropine sulfate intramuscularly. In the cases of two bulldogs experiencing severe sleep-disordered breathing, intubation and general anesthesia were thought to pose a significant risk for postoperative respiratory failure. These two dogs were therefore sedated only using 20 to 40 micrograms per kilogram body weight oxymorphone administered intramuscularly. The six remaining dogs were anesthetized initially with sodium thiopental (15 to 30 milligrams per kilogram body weight) administered intravenously. The dogs were intubated and maintained under general anesthesia using 0.5 to 2.5% (v/v) inhalational halothane throughout the procedure.
Recording electrodes were implanted for the study of diaphragm and upper airway dilator muscle activity. Electrodes were fashioned from 0.7 millimeter multi-stranded Teflon-coated stainless steel wire. The insulation was stripped from 5 to 8 millimeters at the proximal tip. The proximal tip of each electrode was implanted transcutaneously into the relevant musculature using methods described by Basmajian et al. (1962, J. Appl. Physiol. 17:839).
as §3
Two ground electrodes were embedded transcutaneously contacting both the occipital skull and dorsal neck musculature. Distal tips of all electrodes were soldered onto a 25-pin Winchester-type connector. Electrodes and the connector were secured to each dog with elastic adhesive dressings over the torso and neck.
as §1
The effects of serotonin antagonists on upper airway dilator muscle activity and breathing during wakefulness were assessed. Serotonin antagonists which were administered were methysergide maleate and ritanserin.
Ritanserin is a relatively selective serotonin antagonist at types 1C and 2 serotonin receptors (Devaud et al., 1992, J. Neurochem. 59:1459-1466). Ritanserin was selected for study on the basis that the IC and 2 subtypes of serotonin receptors appear to be involves in serotonin facilitation of hypoglossal motoneurons in vivo (Kugin et al., supra). […]

In the case of `CC[C@@H](CO)NC(=O)[C@@H]1C=C2c3cccc4c3c(cn4C)C[C@H]2N(C)C1` [methysergide], the “behavior (head and neck movements, alertness)” value with English bulldogs [1] is “increase in staring behaviors”. The “TE reduced by” value in the series on English bulldogs [2] was 33.8%. Moreover, the “TI reduced by” value in the series with English bulldogs [2] is reported as 12.7%. In the series on English bulldogs [2], the “Ttot reduced by” value was determined as 23.9%. The “mean SaO2” value was 86.6±2.0% with English bulldogs [3] (0.50 mg/kg i.v., baseline ritanserin 92.1±0.6, methysergide 90.3±2.7) and 85.6±0.9% with English bulldogs [3] (1.0 mg/kg i.v. cumulative, baseline 90.3±2.7). Further, in the series with English bulldogs [3] (total dose 1.0 mg/kg i.v., single dog, initial study), the “oxygen desaturations in dog EBD-G (hypoxic at baseline)” value is 75%. Besides, the “DIA peak amplitude as percentage of the baseline value” in the series on English bulldogs [4] (0.50 mg/kg i.v.) was 67.7%; with English bulldogs [4] (1.0 mg/kg i.v. cumulative), 39.6%. Besides, the “DIA peak amplitude, mean” value with English bulldogs [4] (0.50 mg/kg i.v., baseline ritanserin 17.63±2.79, methysergide 7.07±2.37) amounted to 4.74±0.25 arbitrary units; in the series with English bulldogs [4] (1.0 mg/kg i.v. cumulative, three dogs, baseline 7.07±2.37), 2.80±1.48 arbitrary units. Also, the SH peak amplitude in the series with English bulldogs [5] (0.50 mg/kg i.v., baseline ritanserin 14.41±3.93, methysergide 5.75±0.18) is recorded as 3.83±0.28 arbitrary units; in the series on English bulldogs [5] (1.00 mg/kg i.v. cumulative, four dogs, baseline 5.75±0.18), 2.77±0.38 arbitrary units.
